In US11566039B2, “Lincosamide antibiotics and uses thereof” (President and Fellows of Harvard College, priority 2017, dated 2023):
Converted amounts (≈) assume the structure as drawn. Like-named read-outs stand apart in the source and are kept apart here.

Legend:
Format in all cases: cell-based
S. pyogenes ATCC 19615 = assay: MIC against S. pyogenes ATCC 19615
S. aureus ATCC 29213 = assay: MIC against S. aureus ATCC 29213
S. pneumoniae ATCC 49619 = assay: MIC against S. pneumoniae ATCC 49619
[1] = tested on: E. coli MP-74 LptD mutant; assay: MIC against E. coli MP-74 LptD mutant
E. coli MP-9 ΔTolC = assay: MIC against E. coli MP-9 ΔTolC; conditions: Escherichia coli
[2] = tested on: S. aureus MP-549 msr(a) USA 300; assay: MIC against S. aureus MP-549 msr(a) USA 300
H. influenzae ATCC 49247 = assay: MIC against H. influenzae ATCC 49247; conditions: Haemophilus influenzae, ATCC49247, H. influenzae ATCC 49247; read-out: MIC
K. pneumoniae ATCC 10031 = assay: MIC against K. pneumoniae ATCC 10031; conditions: Klebsiella pneumoniae, ATCC10031, read-out: MIC
E. faecalis ATCC 29212 = assay: MIC against E. faecalis ATCC 29212; conditions: Enterococcus faecalis, ATCC29212, E. faecalis ATCC 29212; read-out: MIC
E. coli ATCC 25922 = assay: MIC against E. coli ATCC 25922; conditions: Escherichia coli, ATCC25922, read-out: MIC
S. aureus BAA 977 iErmA = assay: MIC against S. aureus BAA 977 iErmA; conditions: Staphylococcus aureus, BAA977
[3] = S. aureus MP-549 msr(a) USA 300
[4] = Streptococcus pyogenes, ATCC19615, S. pyogenes ATCC 19615, read-out: MIC
[5] = Staphylococcus aureus, ATCC29213, S. aureus ATCC 29213, read-out: MIC
[6] = Streptococcus pneumoniae, ATCC49619, S. pneumoniae ATCC 49619, read-out: MIC

SMILES	MIC (S. pyogenes ATCC 19615; S. pyogenes ATCC 19615) [µg/mL]	MIC (S. aureus ATCC 29213; S. aureus ATCC 29213) [µg/mL]	MIC (S. pneumoniae ATCC 49619; S. pneumoniae ATCC 49619) [µg/mL]	MIC ([1]; Escherichia coli) [µg/mL]	MIC (E. coli MP-9 ΔTolC) [µg/mL]	MIC [2, 3] [µg/mL]	MIC (H. influenzae ATCC 49247) [µg/mL]	MIC (K. pneumoniae ATCC 10031) [µg/mL]	MIC (E. faecalis ATCC 29212) [µg/mL]	MIC (E. coli ATCC 25922) [µg/mL]	MIC (S. pyogenes ATCC 19615; [4]) [µg/mL]	MIC (S. aureus ATCC 29213; [5]) [µg/mL]	MIC (S. pneumoniae ATCC 49619; [6]) [µg/mL]	MIC [1] [µg/mL]	MIC ([2]; Staphylococcus aureus, USA300, S. aureus MP-549 msr(a) USA 300) [µg/mL]	MIC (S. aureus BAA 977 iErmA) [µg/mL]
CCC[C@@H]1C[C@@H](C(=O)N[C@H]([C@@H]2CCC(O)C2O)[C@H]2OC(SC)[C@H](O)C(O)C2O)N(C)C1 (single isomer, unassigned) [FSA-217039a]	8 (≈ 17.3 µM)	>64	8 (≈ 17.3 µM)	> 64	> 64	>64	> 64	> 64	> 64	> 64						
CCC[C@@H]1C[C@@H](C(=O)N[C@H](CNC23CC(C2)C3)[C@H]2OC(SC)[C@H](O)C(O)C2O)N(C)C1 (stereo partly drawn) [FSA-2140836]									> 64	> 64	> 64	> 64	> 64			
CCC[C@@H]1C[C@@H](C(=O)N[C@H](CNc2ccc(-c3cncnc3)cc2)[C@H]2OC(SC)[C@H](O)C(O)C2O)N(C)C1 (stereo partly drawn) [FSA-214080]									> 64	> 64	> 64	> 64	> 64			
CCC[C@@H]1C[C@@H](C(=O)N[C@H](CO)[C@H]2OC(SC)[C@H](O)C(O)C2O)N(C)C1 (stereo partly drawn) [FSA-214043, 8-norlincomycin]									64 (≈ 163 µM)	> 64	8 (≈ 20.4 µM)	32 (≈ 81.5 µM)	4 (≈ 10.2 µM)			
CCC[C@@H]1C[C@@H](C(=O)N[C@@H]([C@H]2OC(SC)[C@H](O)C(O)C2O)C(C)(C)C(C)N=[N+]=[N-])N(C)C1 (single isomer, unassigned) [FSA-217021a]	2 (≈ 4.22 µM)	4 (≈ 8.45 µM)	2 (≈ 4.22 µM)		> 64	4 (≈ 8.45 µM)	> 64	> 64	> 64	> 64				>64		
C=CC(C)(C)[C@@H](NC(=O)[C@@H]1C[C@@H](CCC)CN1C)[C@H]1OC(SC)[C@H](O)C(O)C1O (stereo partly drawn) [FSA-217009]				32 (≈ 74.3 µM)	> 64		64 (≈ 149 µM)	> 64	64 (≈ 149 µM)	> 64	0.12 (≈ 0.279 µM)	0.25 (≈ 0.581 µM)	0.5 (≈ 1.16 µM)		0.25 (≈ 0.581 µM)	
CCC[C@@H]1C[C@@H](C(=O)N[C@H](Cn2cc(-c3ccnc(N)n3)nn2)[C@H]2OC(SC)[C@H](O)C(O)C2O)N(C)C1 (stereo partly drawn) [FSA-215011]									> 64	> 64	> 64	> 64	2 (≈ 3.73 µM)			
CCC[C@@H]1C[C@@H](C(=O)N[C@H](COC(=O)Nc2ccccc2)[C@H]2OC(SC)[C@H](O)C(O)C2O)N(C)C1 (stereo partly drawn) [FSA-215036]					> 64			> 64	> 64	> 64	64 (≈ 125 µM)	> 64	16 (≈ 31.3 µM)			> 64
CCC[C@@H]1C[C@@H](C(=O)N[C@H]([C@H](C)NCc2ccc(F)cc2)[C@H]2OC(SC)[C@H](O)C(O)C2O)N(C)C1 (stereo partly drawn) [FSA-215025d]					> 64			> 64	> 64	> 64	1 (≈ 1.95 µM)	4 (≈ 7.79 µM)	2 (≈ 3.89 µM)			4 (≈ 7.79 µM)
CCC[C@@H]1C[C@@H](C(=O)N[C@H](CNc2ccccc2)[C@H]2OC(SC)[C@H](O)C(O)C2O)N(C)C1 (stereo partly drawn) [FSA-214088]									> 64	> 64	> 64	> 64	> 64			
C=C[C@@H](NC(=O)[C@@H]1C[C@@H](CCC)CN1C)[C@H]1OC(SC)[C@H](O)C(O)C1O (stereo partly drawn) [FSA-215031]					> 64			> 64	32 (≈ 82.4 µM)	> 64	2 (≈ 5.15 µM)	8 (≈ 20.6 µM)	2 (≈ 5.15 µM)			8 (≈ 20.6 µM)
CCC[C@@H]1C[C@@H](C(=O)N[C@H]([C@H](C)NC(=O)CCCN)[C@H]2OC(SC)[C@H](O)C(O)C2O)N(C)C1 (stereo partly drawn) [FSA-215052]					> 64			> 64	> 64	> 64	32 (≈ 65.2 µM)	> 64	> 64			> 64
